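Protocol summary: plate cells (96-well), add compound at 5 concentrations, incubate 48 h, interpolate endpoints linearly. The concentration for full growth arrest is given as TGI.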 Where a SMILES comes first, the peptide text is derived from it. The star is where a group is joined. Cbz = O=C(OCc1ccccc1)*; NHNH2 = NN*
Legend:
Assay in all cases: growth of human tumour cells (NCI), 48 h
HOP-62 NSCLC = test system: HOP-62 NSCLC
SK-MEL-5 melanoma = test system: SK-MEL-5 melanoma
MOLT-4 leukemia = test system: MOLT-4 leukemia
KM12 colon = test system: KM12 colon
NCI-H460 lung = test system: NCI-H460 lung
MCF7 breast = test system: MCF7 breast
IGROV1 ovarian = test system: IGROV1 ovarian
ACHN renal = test system: ACHN renal
M14 melanoma = test system: M14 melanoma
MALME-3M melanoma = test system: MALME-3M melanoma
UACC-257 melanoma = test system: UACC-257 melanoma
HCC-2998 colon = test system: HCC-2998 colon
HL-60(TB) leukemia = test system: HL-60(TB) leukemia
SK-MEL-28 melanoma = test system: SK-MEL-28 melanoma
MDA-MB-231 breast = test system: MDA-MB-231 breast
SNB-75 CNS = test system: SNB-75 CNS
A549 NSCLC = test system: A549 NSCLC
TK-10 renal = test system: TK-10 renal
UACC-62 melanoma = test system: UACC-62 melanoma
SR leukemia = test system: SR leukemia
K-562 leukemia = test system: K-562 leukemia
UO-31 renal = test system: UO-31 renal
A498 renal = test system: A498 renal
SN12C renal = test system: SN12C renal
OVCAR-5 ovarian = test system: OVCAR-5 ovarian
HCT-15 colon = test system: HCT-15 colon
EKVX NSCLC = test system: EKVX NSCLC
COLO 205 colon = test system: COLO 205 colon
HOP-92 NSCLC = test system: HOP-92 NSCLC
MDA-N = test system: MDA-N
OVCAR-8 ovarian = test system: OVCAR-8 ovarian
PC-3 prostate = test system: PC-3 prostate
786-0 renal = test system: 786-0 renal
RPMI-8226 leukemia = test system: RPMI-8226 leukemia
U251 CNS = test system: U251 CNS
SK-MEL-2 melanoma = test system: SK-MEL-2 melanoma
BT-549 breast = test system: BT-549 breast
SNB-19 CNS = test system: SNB-19 CNS
NCI-H226 lung = test system: NCI-H226 lung
HS 578T breast = test system: HS 578T breast
SW-620 colon = test system: SW-620 colon
HCT-116 colon = test system: HCT-116 colon
HT29 colon = test system: HT29 colon
OVCAR-3 ovarian = test system: OVCAR-3 ovarian
SK-OV-3 ovarian = test system: SK-OV-3 ovarian
SF-539 CNS = test system: SF-539 CNS
NCI-H522 lung = test system: NCI-H522 lung
T-47D breast = test system: T-47D breast
MDA-MB-435 = test system: MDA-MB-435
SF-268 CNS = test system: SF-268 CNS
NCI-H23 lung = test system: NCI-H23 lung
RXF 393 renal = test system: RXF 393 renal
NCI/ADR-RES ovarian = test system: NCI/ADR-RES ovarian
SF-295 CNS = test system: SF-295 CNS
OVCAR-4 ovarian = test system: OVCAR-4 ovarian
LOX IMVI melanoma = test system: LOX IMVI melanoma
CAKI-1 renal = test system: CAKI-1 renal
DU-145 prostate = test system: DU-145 prostate
CCRF-CEM leukemia = test system: CCRF-CEM leukemia

`CCOC(=O)CCC(NC(=O)OCc1ccccc1)C(=O)NC(CCC(=O)OCC)C(=O)NN` (stereo not given) (Cbz-Glu(OEt)-Glu(OEt)-NHNH2; configuration not given here) was tested, and the TGI (HOP-62 NSCLC) was > 100 µM, the TGI (SK-MEL-5 melanoma) was > 100 µM and the TGI (MOLT-4 leukemia) was > 100 µM. For the same compound, the TGI (KM12 colon) was > 100 µM, the TGI (NCI-H460 lung) was > 100 µM and the TGI (MCF7 breast) was > 100 µM. The TGI (IGROV1 ovarian) was > 100 µM, the TGI (ACHN renal) was > 100 µM and the TGI (M14 melanoma) was > 100 µM. For the same compound, the TGI (MALME-3M melanoma) was > 100 µM, the TGI (UACC-257 melanoma) was > 100 µM and the TGI (HCC-2998 colon) was > 100 µM. For the same compound, the TGI (HL-60(TB) leukemia) was > 100 µM, the TGI (SK-MEL-28 melanoma) was > 100 µM and the TGI (MDA-MB-231 breast) was > 100 µM. The TGI (SNB-75 CNS) was > 100 µM, the TGI (A549 NSCLC) was > 100 µM and the TGI (TK-10 renal) was > 100 µM. For the same compound, the TGI (UACC-62 melanoma) was > 100 µM, the TGI (SR leukemia) was > 100 µM and the TGI (K-562 leukemia) was > 100 µM. The TGI (UO-31 renal) was > 100 µM, the TGI (A498 renal) was > 100 µM and the TGI (SN12C renal) was > 100 µM. The TGI (OVCAR-5 ovarian) was > 100 µM, the TGI (HCT-15 colon) was > 100 µM and the TGI (EKVX NSCLC) was > 100 µM. The TGI (COLO 205 colon) was > 100 µM, the TGI (HOP-92 NSCLC) was > 100 µM and the TGI (MDA-N) was > 100 µM. For the same compound, the TGI (OVCAR-8 ovarian) was > 100 µM, the TGI (PC-3 prostate) was > 100 µM and the TGI (786-0 renal) was > 100 µM. For the same compound, the TGI (RPMI-8226 leukemia) was > 100 µM, the TGI (U251 CNS) was > 100 µM and the TGI (SK-MEL-2 melanoma) was > 100 µM. The TGI (BT-549 breast) was > 100 µM, the TGI (SNB-19 CNS) was > 100 µM and the TGI (NCI-H226 lung) was > 100 µM. The TGI (HS 578T breast) was > 100 µM, the TGI (SW-620 colon) was > 100 µM and the TGI (HCT-116 colon) was > 100 µM. The TGI (HT29 colon) was > 100 µM.
In the case of `Oc1[nH]c2ccccc2c1N=Nc1c(F)c(F)c(F)c(F)c1F`, the TGI (HOP-62 NSCLC) is reported as > 100 µM, the TGI (OVCAR-3 ovarian) is reported as > 100 µM and the TGI (SK-MEL-5 melanoma) is reported as > 100 µM. The TGI (MOLT-4 leukemia) was 31.8 µM, the TGI (KM12 colon) was > 61.9 µM and the TGI (SK-OV-3 ovarian) was > 100 µM. For the same compound, the TGI (NCI-H460 lung) was > 100 µM, the TGI (MCF7 breast) was > 100 µM and the TGI (IGROV1 ovarian) was > 100 µM. For the same compound, the TGI (ACHN renal) was 36.8 µM, the TGI (SF-539 CNS) was > 100 µM and the TGI (M14 melanoma) was > 100 µM. The TGI (NCI-H522 lung) was 47.7 µM, the TGI (T-47D breast) was > 74.7 µM and the TGI (UACC-257 melanoma) was > 71.5 µM. For the same compound, the TGI (HCC-2998 colon) was > 100 µM, the TGI (MDA-MB-435) was > 100 µM and the TGI (SF-268 CNS) was > 100 µM. The TGI (HL-60(TB) leukemia) was 9.15 µM, the TGI (NCI-H23 lung) was > 100 µM and the TGI (SK-MEL-28 melanoma) was > 100 µM. For the same compound, the TGI (RXF 393 renal) was > 100 µM, the TGI (MDA-MB-231 breast) was > 100 µM and the TGI (SNB-75 CNS) was > 100 µM. The TGI (A549 NSCLC) was > 100 µM, the TGI (TK-10 renal) was 62.8 µM and the TGI (UACC-62 melanoma) was > 100 µM. For the same compound, the TGI (SR leukemia) was 14.4 µM, the TGI (K-562 leukemia) was 33.5 µM and the TGI (NCI/ADR-RES ovarian) was > 100 µM. The TGI (UO-31 renal) was > 91.8 µM, the TGI (A498 renal) was > 100 µM and the TGI (SN12C renal) was > 55.7 µM. The TGI (SF-295 CNS) was > 100 µM, the TGI (OVCAR-5 ovarian) was > 100 µM and the TGI (HCT-15 colon) was > 100 µM. The TGI (OVCAR-4 ovarian) was > 100 µM, the TGI (EKVX NSCLC) was > 100 µM and the TGI (COLO 205 colon) was 28.3 µM. The TGI (MDA-N) was > 100 µM, the TGI (OVCAR-8 ovarian) was > 100 µM and the TGI (PC-3 prostate) was > 100 µM. The TGI (LOX IMVI melanoma) was > 66.7 µM, the TGI (786-0 renal) was 50.5 µM and the TGI (RPMI-8226 leukemia) was 25.4 µM. For the same compound, the TGI (U251 CNS) was > 100 µM, the TGI (CAKI-1 renal) was > 64.3 µM and the TGI (DU-145 prostate) was > 100 µM. For the same compound, the TGI (SK-MEL-2 melanoma) was > 100 µM, the TGI (BT-549 breast) was > 100 µM and the TGI (SNB-19 CNS) was > 100 µM. The TGI (CCRF-CEM leukemia) was 16.5 µM, the TGI (NCI-H226 lung) was > 100 µM and the TGI (HS 578T breast) was > 100 µM. For the same compound, the TGI (SW-620 colon) was > 72.8 µM, the TGI (HCT-116 colon) was > 100 µM and the TGI (HT29 colon) was > 100 µM.

From PubChem BioAssay (NCI)
